Laboratory results reported in patent publication US20250129069A1, “TRIAZOLO WRN INHIBITORS” (Nimbus Wadjet, Inc., priority 2023, published 2025).
pEC50, pIC50: −log10 of the molar value.

Tests used:
[1] = target: human Werner helicase (WRN, amino acids 517-1235 with L1074F point mutation) (Homo sapiens (Human), UniProt Q14191, L1074F); assay: WRN (BV08) ADP-Glo assay; format: biochemical; details: human WRN (aa 517-1235, L1074F), read-out: ADP-Glo_hWRN_IC50
In short: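 ADP-Glo luminescence read after 60 min, 25 °C reaction of 0.15 nM WRN (517-1235, L1074F, Sf9-expressed, tag removed) with 0.1 nM DNA duplex and 5 μM ATP, following 15 min compound preincubation; 20 mM Bicine pH 7.5, 1% DMSO. IC50 from 3- or 4-parameter fit of % inhibition.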

[2] = test system: p21 induction in HCT 116 cells; assay: p21 induction in cells (In-Cell Western, p21/GAPDH ratio); format: cell-based; details: Homo sapiens, 24 h compound incubation, read-out: p21_EC50
In short: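 EC50 values come from nonlinear fits of percent activation, defined by the 800/700 nm p21-to-GAPDH ratio scaled between DMSO (low) and internal WRN inhibitor (high) controls. In-Cell Western read after 24 h compound exposure of HCT 116 cells at 37° C. Duplicate 11-point series, 2-fold steps, usually starting at 10 μM.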

human Werner helicase (WRN, amino acids 517-1235 with L1074F point mutation), sequence (Q14191 other isoform, or with tags, fused parts or gaps L1074F (already in the parent)): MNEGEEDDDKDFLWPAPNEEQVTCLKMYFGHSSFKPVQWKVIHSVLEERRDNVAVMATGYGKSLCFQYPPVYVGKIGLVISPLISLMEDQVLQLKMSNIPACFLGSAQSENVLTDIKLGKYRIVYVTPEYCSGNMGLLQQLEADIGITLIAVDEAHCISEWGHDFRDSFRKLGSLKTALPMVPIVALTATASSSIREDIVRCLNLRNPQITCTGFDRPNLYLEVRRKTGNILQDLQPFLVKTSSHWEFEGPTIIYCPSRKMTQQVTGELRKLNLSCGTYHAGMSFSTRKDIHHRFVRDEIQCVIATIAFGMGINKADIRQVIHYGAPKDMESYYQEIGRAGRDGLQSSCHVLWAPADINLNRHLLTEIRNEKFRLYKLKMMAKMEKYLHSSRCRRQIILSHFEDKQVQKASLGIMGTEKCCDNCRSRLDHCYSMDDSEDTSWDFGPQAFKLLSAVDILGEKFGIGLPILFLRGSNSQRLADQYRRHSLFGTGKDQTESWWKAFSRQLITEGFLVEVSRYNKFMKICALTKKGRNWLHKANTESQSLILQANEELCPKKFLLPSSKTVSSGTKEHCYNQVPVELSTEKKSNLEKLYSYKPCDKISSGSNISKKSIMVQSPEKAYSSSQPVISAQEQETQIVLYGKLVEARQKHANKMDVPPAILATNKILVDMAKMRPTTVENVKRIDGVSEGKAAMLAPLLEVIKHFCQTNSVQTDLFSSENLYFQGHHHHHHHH

pIC50 [1]	pEC50 [2]	Compound
≥ 8.30	≥ 6.30	CCc1c(N2CCN(C(=O)c3c(OC)ncc(C)c3O)[C@H]3CC[C@@H]32)c(=O)c2nn(-c3ccnc(OC)c3)nc2n1CC(=O)Nc1ccc(C(F)(F)F)cc1F [Compound I-102, 2-{5-ethyl-6-[(1S,6S)-5-(4-hydroxy-2-methoxy-5-methylpyridine-3-carbonyl)-2,5-diazabicyclo[4.2.0]octan-2-yl]-2-(2-methoxypyridin-4-yl)-7-oxo-2H,4H,7H-[1,2,3]triazolo[4,5-b]pyridin-4-yl}-N-[2-fluoro-4-(trifluoromethyl)phenyl]acetamide]
7.30 to 8.30	5.30 to 5.70	CCc1c(N2CCN(C(=O)c3c(OC)ncc(C)c3O)CC2)c(=O)c2nn(-c3ccnc(OC)c3)nc2n1CC(=O)NC1CC2(CC(C)C2)C1 (stereo not shown) [Compound I-103, 2-{5-ethyl-6-[4-(4-hydroxy-2-methoxy-5-methylpyridine-3-carbonyl)piperazin-1-yl]-2-(2-methoxypyridin-4-yl)-7-oxo-2H,4H,7H-[1,2,3]triazolo[4,5-b]pyridin-4-yl}-N-{6-methylspiro[3.3]heptan-2-yl}acetamide]
7.00 to 7.30	< 5.30	CCc1c(N2CCN(C(=O)c3c(OC)ncc(C)c3O)CC2)c(=O)c2nn(-c3ccnc(OC)c3)nc2n1CC(=O)NC1CC2(C1)CC(F)(F)C2 [Compound I-104, N-{6,6-difluorospiro[3.3]heptan-2-yl}-2-{5-ethyl-6-[4-(4-hydroxy-2-methoxy-5-methylpyridine-3-carbonyl)piperazin-1-yl]-2-(2-methoxypyridin-4-yl)-7-oxo-2H,4H,7H-[1,2,3]triazolo[4,5-b]pyridin-4-yl}acetamide]
7.30 to 8.30	< 5.30	CCc1c(N2CCN(C(=O)c3c(OC)ncc(C)c3O)CC2)c(=O)c2nn(-c3ccnc(OC)c3)nc2n1CC(=O)NC1CC2(C1)CC(C)(C)C2 [Compound I-105, N-{6,6-dimethylspiro[3.3]heptan-2-yl}-2-{5-ethyl-6-[4-(4-hydroxy-2-methoxy-5-methylpyridine-3-carbonyl)piperazin-1-yl]-2-(2-methoxypyridin-4-yl)-7-oxo-2H,4H,7H-[1,2,3]triazolo[4,5-b]pyridin-4-yl}acetamide]
7.30 to 8.30	< 5.30	CCc1c(N2CCN(C(=O)c3c(OC)ncc(C)c3O)CC2)c(=O)c2nn(-c3ccnc(OC)c3)nc2n1CC(=O)NC1CC2(CCC(F)(F)CC2)C1 [Compound I-106, N-{7,7-difluorospiro[3.5]nonan-2-yl}-2-{5-ethyl-6-[4-(4-hydroxy-2-methoxy-5-methylpyridine-3-carbonyl)piperazin-1-yl]-2-(2-methoxypyridin-4-yl)-7-oxo-2H,4H,7H-[1,2,3]triazolo[4,5-b]pyridin-4-yl}acetamide]
7.30 to 8.30	≥ 6.30	CCc1c(N2CCN(C(=O)c3cccc4ncoc34)[C@H]3CC[C@@H]32)c(=O)c2nn(-c3ccnc(OC)c3)nc2n1CC(=O)Nc1ccc(C(F)(F)F)cc1Cl [Compound I-107, 2-{6-[(1S,6S)-5-(1,3-benzoxazole-7-carbonyl)-2,5-diazabicyclo[4.2.0]octan-2-yl]-5-ethyl-2-(2-methoxypyridin-4-yl)-7-oxo-2H,4H,7H-[1,2,3]triazolo[4,5-b]pyridin-4-yl}-N-[2-chloro-4-(trifluoromethyl)phenyl]acetamide]
7.30 to 8.30	5.70 to 6.30	CCc1c(N2CCN(C(=O)c3cccc4ncoc34)[C@H]3CC[C@@H]32)c(=O)c2nn(-c3ccnc(OC)c3)nc2n1CC(=O)NC12CC(C(C)C)(C1)C2 [Compound I-108, 2-{6-[(1S,6S)-5-(1,3-benzoxazole-7-carbonyl)-2,5-diazabicyclo[4.2.0]octan-2-yl]-5-ethyl-2-(2-methoxypyridin-4-yl)-7-oxo-2H,4H,7H-[1,2,3]triazolo[4,5-b]pyridin-4-yl}-N-[3-(propan-2-yl)bicyclo[1.1.1]pentan-1-yl]acetamide]
≥ 8.30	≥ 6.30	CCc1c(N2CCN(C(=O)c3ncc4c(c3O)OCC4)CC2)c(=O)c2nn(C3=CCOCC3)nc2n1CC(=O)Nc1ccc(C(F)(F)F)cc1Cl [Compound I-109, N-[2-chloro-4-(trifluoromethyl)phenyl]-2-[2-(3,6-dihydro-2H-pyran-4-yl)-5-ethyl-6-(4-{7-hydroxy-2H,3H-furo[3,2-c]pyridine-6-carbonyl}piperazin-1-yl)-7-oxo-2H,4H,7H-[1,2,3]triazolo[4,5-b]pyridin-4-yl]acetamide]
7.30 to 8.30	5.70 to 6.30	CCc1c(N2CCN(C(=O)c3c(O)ccc(C)c3OC)CC2)c(=O)c2nn(-c3ccnc(OC)c3)nc2n1CC(=O)NC12CC(C3CC3)(C1)C2 [Compound I-110, N-{3-cyclopropylbicyclo[1.1.1]pentan-1-yl}-2-{5-ethyl-6-[4-(6-hydroxy-2-methoxy-3-methylbenzoyl)piperazin-1-yl]-2-(2-methoxypyridin-4-yl)-7-oxo-2H,4H,7H-[1,2,3]triazolo[4,5-b]pyridin-4-yl}acetamide]
7.30 to 8.30	≥ 6.30	CCc1c(N2CCN(C(=O)c3c(OC)ncc(C)c3O)CC2)c(=O)c2nn(C3=CCOCC3)nc2n1CC(=O)NC12CC(C(C)C)(C1)C2 [Compound I-111, 2-[2-(3,6-dihydro-2H-pyran-4-yl)-5-ethyl-6-[4-(4-hydroxy-2-methoxy-5-methylpyridine-3-carbonyl)piperazin-1-yl]-7-oxo-2H,4H,7H-[1,2,3]triazolo[4,5-b]pyridin-4-yl]-N-[3-(propan-2-yl)bicyclo[1.1.1]pentan-1-yl]acetamide]
7.30 to 8.30	≥ 6.30	CCc1c(N2CCN(C(=O)c3ncnc(C)c3O)CC2)c(=O)c2nn(-c3cnn(C4CC4)c3)nc2n1CC(=O)Nc1ccc(C(F)(F)F)cc1Cl [Compound I-112, N-[2-chloro-4-(trifluoromethyl)phenyl]-2-[2-(1-cyclopropyl-1H-pyrazol-4-yl)-5-ethyl-6-[4-(5-hydroxy-6-methylpyrimidine-4-carbonyl)piperazin-1-yl]-7-oxo-2H,4H,7H-[1,2,3]triazolo[4,5-b]pyridin-4-yl]acetamide]
7.30 to 8.30	≥ 6.30	CCc1c(N2CCN(C(=O)c3ncnc(C)c3O)CC2)c(=O)c2nn(-c3cc(C)n(C)n3)nc2n1CC(=O)Nc1ccc(C(F)(F)F)cc1Cl [Compound I-113, N-[2-chloro-4-(trifluoromethyl)phenyl]-2-[2-(1,5-dimethyl-1H-pyrazol-3-yl)-5-ethyl-6-[4-(5-hydroxy-6-methylpyrimidine-4-carbonyl)piperazin-1-yl]-7-oxo-2H,4H,7H-[1,2,3]triazolo[4,5-b]pyridin-4-yl]acetamide]
7.30 to 8.30	≥ 6.30	CCc1c(N2CCN(C(=O)c3c(OC)ncc(C)c3O)CC2)c(=O)c2nn(-c3ccnc(OC)c3)nc2n1CC(=O)NC12CC(C(C)C)(C1)C2 [Compound I-114, 2-{5-ethyl-6-[4-(4-hydroxy-2-methoxy-5-methylpyridine-3-carbonyl)piperazin-1-yl]-2-(2-methoxypyridin-4-yl)-7-oxo-2H,4H,7H-[1,2,3]triazolo[4,5-b]pyridin-4-yl}-N-[3-(propan-2-yl)bicyclo[1.1.1]pentan-1-yl]acetamide]
7.30 to 8.30	≥ 6.30	CCc1c(N2CCN(C(=O)c3cccc4ncoc34)[C@H]3CC[C@@H]32)c(=O)c2nn(C3=CCOCC3)nc2n1CC(=O)Nc1ccc(C(F)(F)F)cc1Cl [Compound I-115, 2-{6-[(1S,6S)-5-(1,3-benzoxazole-7-carbonyl)-2,5-diazabicyclo[4.2.0]octan-2-yl]-2-(3,6-dihydro-2H-pyran-4-yl)-5-ethyl-7-oxo-2H,4H,7H-[1,2,3]triazolo[4,5-b]pyridin-4-yl}-N-[2-chloro-4-(trifluoromethyl)phenyl]acetamide]
7.30 to 8.30	≥ 6.30	CCc1c(N2CCN(C(=O)c3c(OC)ncc(C)c3O)[C@H]3CC[C@@H]32)c(=O)c2nn(-c3ccnc(OC)c3)nc2n1CC(=O)NC12CC(C(C)C)(C1)C2 [Compound I-116, 2-{5-ethyl-6-[(1S,6S)-5-(4-hydroxy-2-methoxy-5-methylpyridine-3-carbonyl)-2,5-diazabicyclo[4.2.0]octan-2-yl]-2-(2-methoxypyridin-4-yl)-7-oxo-2H,4H,7H-[1,2,3]triazolo[4,5-b]pyridin-4-yl}-N-[3-(propan-2-yl)bicyclo[1.1.1]pentan-1-yl]acetamide]
7.30 to 8.30	≥ 6.30	CCc1c(N2CCN(C(=O)c3c(OC)ncc(C)c3O)[C@H]3CC[C@@H]32)c(=O)c2nn(-c3ccnc(OC)c3)nc2n1CC(=O)NC12CC(C(F)(F)F)(C1)C2 [Compound I-117, 2-{5-ethyl-6-[(1S,6S)-5-(4-hydroxy-2-methoxy-5-methylpyridine-3-carbonyl)-2,5-diazabicyclo[4.2.0]octan-2-yl]-2-(2-methoxypyridin-4-yl)-7-oxo-2H,4H,7H-[1,2,3]triazolo[4,5-b]pyridin-4-yl}-N-[3-(trifluoromethyl)bicyclo[1.1.1]pentan-1-yl]acetamide]
7.30 to 8.30	5.70 to 6.30	CCc1c(N2CCN(C(=O)c3ncnc(C)c3O)CC2)c(=O)c2nn(-c3ccnc(OC)c3)nc2n1CC(=O)NC1CC2(CCC2)C1 [Compound I-118, 2-{5-ethyl-6-[4-(5-hydroxy-6-methylpyrimidine-4-carbonyl)piperazin-1-yl]-2-(2-methoxypyridin-4-yl)-7-oxo-2H,4H,7H-[1,2,3]triazolo[4,5-b]pyridin-4-yl}-N-{spiro[3.3]heptan-2-yl}acetamide]
